Among the data in US20220356174A1, “PYRIDIN-2-ONE COMPOUNDS USEFUL AS SMARCA2 ANTAGONISTS” (Epizyme, Inc., priority 2018, published 2022) are IC50 values, retold here.

In test [1] the target is T1, FL-SMARCA2 (full-length human SMARCA2 isoform 1) (Homo sapiens, UniProt P51531).
T1 construct: FLAG tag (YKDDDDK) (C); made in house; host or cells: Sf21 insect cells (baculovirus, pFastBacI)
Kind of test: SMARCA2 ATPase activity assay (ADP-Glo, chicken mononucleosome substrate). The format is biochemical. Particulars: ATPase assay, enzyme 5 nM, ATP 250 uM, chicken mononucleosome 10 nM, 30 min preincubation. (In general: ADP-Glo first removes unused ATP, then detects ADP through luciferase.)

The next test concerns A549 cells. Kind of test: High-throughput proliferation (HTP) assay for A549 cells (CellTiter-Glo, 7 days). The note with it: Homo sapiens, 168 h, read-out: A549 SMARCA2 IC50. It counts as cell-based. A digest of the protocol:
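A549 cells plated at 62.5 cells/well in F12K + 10% HI-FBS onto pre-dispensed compound, grown 7 days at 37° C., 5% CO2. Viability by CellTiter-Glo luminescence after 30 min at RT; EC50/IC50 from DMSO (0%) and 10 μM Doxorubicin (100%) inhibition controls.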
(Cellular ATP, detected with luciferase, serves as a proxy for viable cell number.)

T1 sequence (P51531 with tags, fused parts or gaps): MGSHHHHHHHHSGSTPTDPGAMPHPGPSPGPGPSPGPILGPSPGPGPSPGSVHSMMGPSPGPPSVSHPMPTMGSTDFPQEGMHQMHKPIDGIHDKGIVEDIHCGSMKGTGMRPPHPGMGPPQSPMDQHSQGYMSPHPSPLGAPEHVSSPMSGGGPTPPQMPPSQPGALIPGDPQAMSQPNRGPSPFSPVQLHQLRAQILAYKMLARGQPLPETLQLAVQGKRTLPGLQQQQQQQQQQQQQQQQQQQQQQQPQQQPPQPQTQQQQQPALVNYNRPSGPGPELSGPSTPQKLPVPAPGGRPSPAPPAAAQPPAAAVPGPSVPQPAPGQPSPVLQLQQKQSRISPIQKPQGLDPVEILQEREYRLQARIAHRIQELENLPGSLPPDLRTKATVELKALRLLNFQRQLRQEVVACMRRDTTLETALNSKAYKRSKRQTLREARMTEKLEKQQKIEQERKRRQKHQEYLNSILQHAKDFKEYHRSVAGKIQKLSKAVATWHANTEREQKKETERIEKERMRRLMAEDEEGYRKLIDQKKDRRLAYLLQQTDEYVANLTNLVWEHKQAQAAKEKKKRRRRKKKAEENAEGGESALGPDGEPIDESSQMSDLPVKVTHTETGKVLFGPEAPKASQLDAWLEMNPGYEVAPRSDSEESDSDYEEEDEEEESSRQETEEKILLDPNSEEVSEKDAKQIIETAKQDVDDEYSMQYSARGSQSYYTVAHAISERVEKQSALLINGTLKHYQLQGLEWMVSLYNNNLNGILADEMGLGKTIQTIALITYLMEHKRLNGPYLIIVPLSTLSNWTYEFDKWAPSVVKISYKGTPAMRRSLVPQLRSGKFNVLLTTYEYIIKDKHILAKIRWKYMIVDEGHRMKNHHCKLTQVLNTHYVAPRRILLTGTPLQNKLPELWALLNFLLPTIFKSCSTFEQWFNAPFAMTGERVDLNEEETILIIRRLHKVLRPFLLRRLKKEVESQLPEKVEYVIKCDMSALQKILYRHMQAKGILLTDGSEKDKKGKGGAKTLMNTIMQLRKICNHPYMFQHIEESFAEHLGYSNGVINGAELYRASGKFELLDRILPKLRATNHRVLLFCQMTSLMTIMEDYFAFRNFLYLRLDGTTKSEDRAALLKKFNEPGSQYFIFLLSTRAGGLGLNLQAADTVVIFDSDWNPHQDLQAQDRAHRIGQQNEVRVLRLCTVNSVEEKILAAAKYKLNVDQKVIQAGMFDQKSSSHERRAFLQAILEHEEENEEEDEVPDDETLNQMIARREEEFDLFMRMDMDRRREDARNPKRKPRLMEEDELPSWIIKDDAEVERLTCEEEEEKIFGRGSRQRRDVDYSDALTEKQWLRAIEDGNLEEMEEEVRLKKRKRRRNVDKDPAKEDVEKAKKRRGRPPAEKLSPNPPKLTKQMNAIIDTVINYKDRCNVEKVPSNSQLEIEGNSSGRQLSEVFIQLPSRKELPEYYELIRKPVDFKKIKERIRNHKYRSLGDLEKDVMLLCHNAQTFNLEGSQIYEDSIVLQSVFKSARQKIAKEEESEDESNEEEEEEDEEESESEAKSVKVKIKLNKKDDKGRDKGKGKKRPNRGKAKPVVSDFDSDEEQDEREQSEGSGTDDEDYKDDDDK

A word on the IC50: it is the point on the concentration scale where inhibition reaches its midpoint. On to `N#Cc1cc(C(=O)Nc2cc(F)c(=O)n(CC(F)F)c2)sc1C(F)(F)F` [Compound 82c, 4-cyano-N-[1-(2,2-difluoroethyl)-5-fluoro-6-oxopyridin-3-yl]-5-(trifluoromethyl)thiophene-2-carboxamide], for which the IC50 in test [1] (Table 3c.1) was 9.88 nM; in the test with A549 cells it was 589 nM.
For the compound `N#Cc1sc(C(=O)Nc2cc(F)c(=O)n(CCF)c2)cc1Cl` [Compound 139], the values for the half-maximal inhibitory concentration (IC50) (in test [1] (Table 3.1); in the test with A549 cells) were 19.6 nM and 868 nM, respectively.
The matching figures for `O=C(Nc1cc(F)c(=O)n(CC(F)F)c1)c1cc(Cl)c(C(F)(F)F)s1` [Compound 298, 4-Chloro-N-(1-(2,2-difluoroethyl)-5-fluoro-6-oxo-1,6-dihydropyridin-3-yl)-5-(trifluoromethyl)thiophene-2-carboxamide]: 24.1 nM and 682 nM.
